Values joined by “and” are separate entries in the source; they are usually repeats but may differ in a detail not shown here. Equal entries are not always repeated. “Also recorded” adds a separate entry of the source. Where two headings read alike, the source gives them in different places.
Assays:
RSV-luc (rA2-Rluc) [1] = details: A549 cells; for inhibition of RSV-luc (result in words): not encapsulated, luciferase RLU; for Selectivity Index (SI): from CC50 and IC50
A549 cells [2] = test: MTT cytotoxicity assay on A549 cells; details: A549 cells
[3] = tested on: rgRSV (recombinant green fluorescent protein-expressing RSV, strain A2); test: Inhibition test on rgRSV-infected HEp-2 cells (GFP foci); details: 24-72 h, coumarin, esculin, umbelliferone 300 µM, esculetin 150 µM, 4-methyl 150 µM
RSV-luc (rA2-Rluc) [4] = test: Inhibition assay of β-cyclodextrin-encapsulated compounds on differentiated HBE cultures inoculated with RSV-luc; details: for inhibition compared with the PC (result in words) / mean difference vs positive control: encapsulated; for decrease in RSV infection: encapsulated with β-cyclodextrin, 48 h; for decrease in RSV infection / mean difference vs positive control: RSV-luc
A549 cells [5] = details: human, 48 h
[6] = MTT cytotoxicity assay on A549 cells; details: human
RSV-luc (rA2-Rluc) [7] = test: microbe, parasite or virus in culture; details: human respiratory syncytial virus, A549, read-out: IC50 (concentration inhibiting 50% viral replication)
influenza virus = tested on: influenza virus; set-up: method as in PMID 20092255; details: plaque reduction assay, cited from earlier work
[8] = MTT, 24 h, modified umbelliferones

Row | Compound | viral inhibition at 24 h (RSV-luc (rA2-Rluc) [1]; RSV-luc) | viral inhibition at 48 h (RSV-luc (rA2-Rluc) [1]; RSV-luc) | inhibition of RSV-luc (result in words) (RSV-luc (rA2-Rluc) [1]) | concentration at which the cells were 80% viable (A549 cells [2]; MTT, 48 h) | inhibition of rgRSV (result in words) [3] | inhibition compared with the PC (result in words) (RSV-luc (rA2-Rluc) [4]) | Selectivity Index (SI) (RSV-luc (rA2-Rluc) [1]) | CC50 [6] | IC50 (RSV-luc (rA2-Rluc) [7]) | concentration at which the cells were 80% viable (A549 cells [5]) | other results
1 | 5,7-Dihydroxycoumarin-4-methylcoumarin [4-methyl esculetin] | about 40% | inhibition doubling | reduced luciferase gene expression | 75 µM | inhibited rgRSV effectively | no significant inhibition |  |  |  |  | IC50 (RSV-luc (rA2-Rluc) [1]; read-out: IC50 (concentration inhibiting 50% viral replication), RSV-luc): 70 µM; CC50 (A549 cells [2]; read-out: CC50 (concentration causing 50% cytotoxicity), MTT, extrapolated from CC90 and CC100): 1.04 mM
2 | OC[C@H]1O[C@@H]2O[C@H]3[C@H](O)[C@@H](O)[C@@H](O[C@H]4[C@H](O)[C@@H](O)[C@@H](O[C@H]5[C@H](O)[C@@H](O)[C@@H](O[C@H]6[C@H](O)[C@@H](O)[C@@H](O[C@H]7[C@H](O)[C@@H](O)[C@@H](O[C@H]8[C@H](O)[C@@H](O)[C@@H](O[C@H]1[C@H](O)[C@H]2O)O[C@@H]8CO)O[C@@H]7CO)O[C@@H]6CO)O[C@@H]5CO)O[C@@H]4CO)O[C@@H]3CO [β-cyclodextrin] |  |  |  |  |  |  |  |  |  |  | decrease of the available cells (A549 cells [5]): about 5%
3 | CC(=O)Oc1ccc2ccc(=O)oc2c1 [acetylated umbelliferone, 7-Acetoxycoumarin] |  |  |  |  |  |  |  |  |  |  | concentration that resulted in >80% viable cells (A549 cells [2]; [8]): 20 µM; cytotoxicity compared (result in words) (A549 cells [2]; [8]): higher cytotoxicity than prenylated umbelliferone
4 | O=c1ccc2ccc(O)cc2o1 [Umbelliferone, 7-Hydroxycoumarin] |  |  | did not show inhibition | 300 µM | did not | no significant inhibition | 0.46 | 2.4 mM | 5.14 mM |  | 
5 | CN[C@@H]1C[C@H]2O[C@@](C)([C@@H]1OC)n1c3ccccc3c3c4c(c5c6ccccc6n2c5c31)C(=O)NC4 [Staurosporine, reference compound] |  |  |  |  |  |  |  |  |  |  | cells unavailable (A549 cells [2]; Staurosporine 1 mM, 48 h): 50%
6 | COc1ccc(C2CC(=O)c3c(O)cc(O)cc3O2)cc1O (stereo not drawn) [Hesperetin, 3′,5,7-Trihydroxy-4′-methoxyflavanone] | 57% | not maintained | reduced luciferase gene expression |  |  | no significant inhibition | 7.39 | 2.67 mM | 0.36 mM | 300 µM | decrease in RSV infection (RSV-luc (rA2-Rluc) [4]): ~7% and 7.5%
7 | O=c1ccc2cc(O[C@@H]3O[C@H](CO)[C@@H](O)[C@H](O)[C@H]3O)c(O)cc2o1 [Esculin, 6,7-Dihydroxycoumarin-6-glucoside] |  |  | did not show inhibition | 300 µM | did not | no significant inhibition | 1.21 | 1.93 mM | 1.59 mM |  | 
8 | O=c1ccc2ccccc2o1 [Coumarin, 1,2 Benzopyrone] |  |  | did not show inhibition; also recorded: no reduction in infection |  | did not |  | 2.16 | 3.56 mM | 1.65 mM | 300 µM | mean difference vs positive control (RSV-luc (rA2-Rluc) [4]): 19,333,333 RLU
9 | O=c1ccc2ccc3occc3c2o1 [angelicin] |  |  |  |  |  |  |  |  |  |  | reduction of influenza virus infection (influenza virus; 20 nM): 50%; reduction of influenza virus infection (result in words) (influenza virus; 100 nM): completely
10 | O=c1ccc2cc(O)c(O)cc2o1 [Esculetin, 6,7-Dihydroxycoumarin] | approximately 50% | 70% | reduced luciferase gene expression |  | inhibited rgRSV effectively |  | 7.56 | 1.41 mM | 0.18 mM | 125 µM | decrease in RSV infection (RSV-luc (rA2-Rluc) [4]): ~15%; mean difference vs positive control (RSV-luc (rA2-Rluc) [4]): 12,600,000 RLU
